In patent US9067898B1, “Isothiazole derivatives as GPR120 agonists for the treatment of type II diabetes” (Janssen Pharmaceutica NV, priority 2014, dated 2015):

Biological target: T1, Human GPR120 short form (Homo sapiens, UniProt Q5NUL3)
T1 construct: expressed in transfected cells
T1 sequence (Q5NUL3 1-361): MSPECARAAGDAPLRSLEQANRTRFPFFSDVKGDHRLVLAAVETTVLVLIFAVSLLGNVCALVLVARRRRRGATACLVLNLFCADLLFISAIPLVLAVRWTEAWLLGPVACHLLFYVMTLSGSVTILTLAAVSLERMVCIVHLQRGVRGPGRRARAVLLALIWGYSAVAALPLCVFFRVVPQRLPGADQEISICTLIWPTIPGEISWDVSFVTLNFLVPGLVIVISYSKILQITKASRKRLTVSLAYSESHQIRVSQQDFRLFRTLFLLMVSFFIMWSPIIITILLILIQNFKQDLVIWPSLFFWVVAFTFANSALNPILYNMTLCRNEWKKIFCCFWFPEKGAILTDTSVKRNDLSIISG
Experiment: Human GPR120 calcium flux assay (FLIPR), Procedure Calcium A
Assay type: cell-based
Conditions: HEK-293 cells expressing human GPR120 short form, 2500 cells/well; read-out: GPR120 Ca2+ Assay A EC50
Text: This in vitro assay serves to assess test compound agonist activity against the short splice variant (SVS with Accession number NM_001195755.1 confirmed by sequencing data) of the GPR120 receptor. The Human Short splice variant #2 (NM_001195755.1) is missing an in-frame coding exon compared to variant 1 (the Human Long splice variant NM_181745.3), resulting in a shorter isoform (GPR120-S) lacking a 16 aa protein segment compared to isoform GPR120-L. The assay platform utilizes HEK-293 cells stably transfected to express the Human GPR120 short form. These cells are first loaded with the Ca^+2 sensitive dye, Fluo-4 NW. Upon stimulation, intracellular released Ca^+2 can bind to the dye and alter its fluorescence intensity. This increase in fluorescence signal, and thus the flux in intracellular [Ca^2+], is detected and quantitated by fluorescence imaging using a FLIPR reader. The effect of the agonist is measured as a function of concentration and used to calculate an EC50 based upon a response curve.
In this procedure 2500 cells/well were employed.
A Human GPR120 clone (Genbank accession number NM_001195755.1) was placed into the pcDNA3.1 mammalian expression vector carrying the neomycin resistance gene. A stable mammalian cell was generated by placing the above clone into a HEK293 background. Clonal cells responding to long chain fatty acids had expression levels of GPR120 confirmed by RT-qPCR. Human HEK-GPR120 cells were cultured in Dulbecco's Modified Eagle's Medium (DMEM)/F12 medium supplemented with 10% fetal bovine serum (FBS), 1% L-Glutamine and 1% penicillin/streptomycin and 0.5 mg/ml G-418. Cells were split 2 times a week to keep the cells in the log-phase growth.
In preparation for the assay, HEK cells stably transfected with Human GPR120 (2.5K cells per well in 25 uL growth medium) were seeded into 384-well plates and then incubated overnight (37° C., 5% CO2). The next day, the media was changed to 20 μL assay buffer and the cell starved for 1 h at 37° C. The dye loading solution (2× dye) was prepared using 10 mL assay buffer, 100 μL of 250 mM probenecid, 1 bottle of Component A, and 20 μl of dye in DMSO. Twenty μL of the 2× dye loading buffer was then added to each well. The plates were incubated at 37° C. for 30 min, then at room temperature for an additional 15 minutes, before performing the assay on FLIPR. Test compounds were prepared in assay buffer (2 uL of cpd+198 uL assay buffer, final DMSO in assay plate is 0.2%) at the desired concentration, more particularly at 100, 50, 25, 12.5, 6.25, 3.125, 1.562, 0.781, 0.391, 0.195, 0.098, 0.049, 0.024 and 0.012 μM.
The assay was performed on a FLIPR plate reader using the following parameters. Baseline was read for 10 seconds at 1 sec intervals. The program was set to transfer 10 μL of ligand from compound plate to cell plate after baseline reading. Aspiration was executed at: 10 μL/sec speed, 4.6 μL height; Dispensing was executed at: 30 μL/sec speed, 45 μL height. After compound addition, each well was read for 300 sec, with measurements collected at 1 sec intervals.
The kinetic data from the FLIPR was based upon a 5 minute window for data collection. The fluorescence of each sample well was used for individual calculations of a normalized RFU value, which was defined as maximum response minus the minimum response. The normalized fluorescence reading (RFU) was calculated as follows: RFU=Fmax−Fmin The data were fitted to a sigmoidal dose-response curve with a variable Hill slope (<2) using nonlinear regression with GraphPad Prism 5.0 to calculate the EC50 values. The Fitting Equation was: Y=Bottom+(Top−Bottom)/(1+10^((Log EC50−X)*HillSlope)), where X is the log of the concentration and Y is the response.

SMILES | EC50
CCc1ccc(-c2nsc(OC)c2COc2ccc(CCC(=O)O)c(C)c2C)cc1 [Cpd 228, 3-(4-[[3-(4-ethylphenyl)-5-methoxy-1,2-thiazol-4-yl]methoxy]-2,3-dimethylphenyl)propanoic acid] | 923 nM
CCc1ccc(-c2sc(C)c(C(F)(F)F)c2COc2ccc(CCC(=O)O)c(C)c2C)cc1 [Cpd 61, 3-(4-[[2-(4-ethylphenyl)-5-methyl-4-(trifluoromethyl)thiophen-3-yl]methoxy]-2,3-dimethylphenyl) propanoic acid] | 564 nM
O=C(O)CCc1ccc(OCc2c(-c3ccc(Cl)cc3)csc2C(F)(F)F)c(F)c1F [Cpd 47, 3-(4-((4-(4-chlorophenyl)-2-(trifluoromethyl)thiophen-3-yl)methoxy)-2,3-difluorophenyl)propanoic acid] | 166 nM
CCc1ccc(-c2nsc(C(F)(F)C(F)(F)F)c2COc2ccc(CCC(=O)O)c(C)c2C)cc1 [Cpd 192, 3-(4-[[3-(4-ethylphenyl)-5-(pentafluoroethyl)-1,2-thiazol-4-yl]methoxy]-2,3-dimethylphenyl)propanoic acid] | 332 nM
CCc1ccc(-c2csc(C(F)(F)F)c2COc2ccc(CCC(=O)O)c(C)c2C)cc1 [Cpd 54, 3-(4-((4-(4-ethylphenyl)-2-(trifluoromethyl)thiophen-3-yl)methoxy)-2,3-dimethylphenyl)propanoic acid] | 199 nM
O=C(O)CCc1cc(F)c(OCc2csnc2-c2ccc(Cl)s2)c(F)c1 [Cpd 202, 3-(4-((3-(5-chlorothiophen-2-yl)isothiazol-4-yl)methoxy)-3,5-difluorophenyl)propanoic acid] | 468 nM
O=C(O)CCc1cc(F)c(OCc2sc(Cl)cc2-c2ccc(Cl)cc2)c(F)c1 [Cpd 10, 3-(4-[[5-chloro-3-(4-chlorophenyl)thiophen-2-yl]methoxy]-3,5-difluorophenyl)propanoic acid] | 123 nM
CCc1ccc(-c2nsc(C3CC3)c2COc2ccc(CCC(=O)O)c(C)c2C)cc1 [Cpd 149, 3-(4-[[5-cyclopropyl-3-(4-ethylphenyl)-1,2-thiazol-4-yl]methoxy]-2,3-dimethylphenyl)propanoic acid] | 167 nM
COc1ccc(-c2snc(OC)c2COc2c(F)cc(CCC(=O)O)cc2F)cc1 [Cpd 182, 3-(3,5-difluoro-4-[[3-methoxy-5-(4-methoxyphenyl)-1,2-thiazol-4-yl]methoxy]phenyl)propanoic acid] | 281 nM
Cc1c(CCC(=O)O)ccc(OCc2sc(Cl)cc2-c2ccc(Cl)cc2)c1C [Cpd 6, 3-(4-[[5-chloro-3-(4-chlorophenyl)thiophen-2-yl]methoxy]-2,3-dimethylphenyl) propanoic acid] | 90 nM
Cc1c(/C=C/C(=O)O)ccc(OCc2c(-c3ccc(Cl)cc3)nsc2C(F)(F)F)c1C [Cpd 244, (E)-3-(4-((3-(4-chlorophenyl)-5-(trifluoromethyl)isothiazol-4-yl)methoxy)-2,3-dimethylphenyl)acrylic acid] | > 5000 nM
COc1ccc(-c2snc(Cl)c2COc2ccc(CCC(=O)O)c(C)c2C)cc1 [Cpd 186, 3-(4-[[3-chloro-5-(4-methoxyphenyl)-1,2-thiazol-4-yl]methoxy]-2,3-dimethylphenyl)propanoic acid] | 303 nM
Cc1c(CCC(=O)O)ccc(OCc2c(-c3ccc(Cl)cc3)csc2C(F)(F)F)c1C [Cpd 57, 3-(4-((4-(4-chlorophenyl)-2-(trifluoromethyl)thiophen-3-yl)methoxy)-2,3-dimethylphenyl)propanoic acid] | 278 nM
O=C(O)CCc1ccc(OCc2csnc2-c2ccc(Cl)s2)c(F)c1F [Cpd 226, 3-(4-((3-(5-chlorothiophen-2-yl)isothiazol-4-yl)methoxy)-2,3-difluorophenyl)propanoic acid] | 849 nM
O=C(O)CCc1cc(F)c(OCc2c(C3CCOC3)nsc2C(F)(F)F)c(F)c1 (stereo not drawn) [Cpd 214, 3-(3,5-difluoro-4-((3-(tetrahydrofuran-3-yl)-5-(trifluoromethyl)isothiazol-4-yl)methoxy)phenyl)propanoic acid] | 606 nM
